As a reminder, the kon is a measure of how fast the partners come together. Higher therefore signals fast association. What is called koff is a measure of how fast the partners let go of each other.

The text below walks through data of PMC3711766 (The Journal of neuroscience : the official journal of the …, 2013).

Experiment [1] has as its target T1, FLAG-MOR (Mus musculus, UniProt P42866). The experiment is classed as binding.
The target of experiment [2] is T1, FLAG-MOR. The experiment is classed as cell-based. To be noted: ME 1 µM, 5 sec; pertussis toxin 100 ng/mL overnight.
In experiment [3] the target is T1, FLAG-MOR. The format is binding. To be noted: derm A594 200 nM; ME 30 µM 2 hrs, then ME 3 µM pre pulse.
Experiment [4] has as its target T1, FLAG-MOR. Put plainly: Binding and unbinding kinetics of derm A594 in live FLAG-MOR HEK 293 cells. To be noted: for average time constant of association: derm A594 30 nM.
In experiment [5] the target is T1, FLAG-MOR. Put plainly: Steady state binding of derm A594 in live FLAG-MOR HEK 293 cells.
For experiment [6], the target named is T1, FLAG-MOR. The experiment is classed as binding. This is another data set of the same source.

Read-outs that look alike come from different tables or passages of the source. Where a SMILES comes first, the peptide text is derived from it. [ ]: non-standard residue; d: D form. The star is where a group is joined. X1 = CN1c2cc3c(cc2C(CS(=O)(=O)[O-])=CC1(C)C)C(c1ccc(C(=O)NCCCCCN2C(=O)CC(*)C2=O)cc1C(=O)O)=c1cc2c(cc1O3)=[N+](C)C(C)(C)C=C2CS(=O)(=O)O

T1 sequence (P42866 whole entry): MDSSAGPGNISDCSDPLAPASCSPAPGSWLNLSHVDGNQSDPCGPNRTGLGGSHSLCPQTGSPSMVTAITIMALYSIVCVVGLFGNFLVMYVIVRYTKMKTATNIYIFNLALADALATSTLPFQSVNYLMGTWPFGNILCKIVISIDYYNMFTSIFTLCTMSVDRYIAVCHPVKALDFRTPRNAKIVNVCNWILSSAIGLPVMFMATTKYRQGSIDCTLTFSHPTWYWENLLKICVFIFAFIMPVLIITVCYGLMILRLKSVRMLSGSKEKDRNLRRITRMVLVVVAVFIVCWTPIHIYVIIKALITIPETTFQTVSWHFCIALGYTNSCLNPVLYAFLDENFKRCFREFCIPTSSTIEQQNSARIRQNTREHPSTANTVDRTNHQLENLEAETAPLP

As for pertussis toxin [reference compound], the “fraction derm A594 remaining after 3 min” value on FLAG-MOR [1] (β-arr 1/2 k.o. MEF cells, pertussis toxin 100 ng/ml overnight, no ME) worked out at 0.12±0.02. On FLAG-MOR [2], this compound gave a GIRK current of 3.3±6.8 pA.
`C[C@@H](NC(=O)[C@@H](N)Cc1ccc(O)cc1)C(=O)N[C@@H](Cc1ccccc1)C(=O)NCC(=O)N[C@@H](Cc1ccc(O)cc1)C(=O)N1CCC[C@H]1C(=O)N[C@@H](CCCCN)C(=O)N[C@@H](CSC1CC(=O)N(CCCCCNC(=O)c2ccc(C3=c4cc5c(cc4Oc4cc6c(cc43)C(CS(=O)(=O)[O-])=CC(C)(C)N6C)=[N+](C)C(C)(C)C=C5CS(=O)(=O)O)c(C(=O)O)c2)C1=O)C(N)=O` (stereo partly drawn) [derm A594, dermorphin Alexa 594] (H-Y[dA]FGYPKC(X1)-NH2; N-terminus assumed): the “relative amount of derm A594 bound after 1 min (R/G)” value on FLAG-MOR [3] came to 0.95±0.08. Moreover, the “fraction derm A594 remaining after 3 min” value came to 0.09±0.01 on FLAG-MOR [1] (WT MEF cells, untreated) and 0.13±0.02 on FLAG-MOR [1] (β-arr 1/2 k.o. MEF cells, untreated). Also, on FLAG-MOR [4], the kon turned out to be 353000 M⁻¹ s⁻¹. Further, the “decrease of koff after ME treatment” value at FLAG-MOR [4] (ME 30 µM 2 hr vs untreated) was “approximately 6 fold”. Moreover, on FLAG-MOR [4] (ME 30 µM 2 hr vs untreated), the “decrease of kon after ME treatment” value was “about 40%”. The “average time constant of association” value is 51.5 ± 7.8 s at FLAG-MOR [4] (ME treated cells (30 µM 2 hr)) and 11.4 ± 0.4 s on FLAG-MOR [4] (untreated cells). Moreover, the “time constant of dissociation from the receptor” value on FLAG-MOR [4] (live cells) was roughly 10 s. Moreover, the koff at FLAG-MOR [4] (read-out: koff (intercept of linear fit)) came to 0.011 s⁻¹. Also, the “Hill slope of steady state binding” value is given as 1.03±0.3 on FLAG-MOR [5] (after ME 30 µM 2 hrs) and 0.95±.02 on FLAG-MOR [5] (untreated live cells).
Turning to `COc1ccc2c3c1O[C@H]1C(=O)CC[C@@]4(O)[C@@H](C2)N(C)CC[C@]314` [oxycodone], the “fraction derm A594 remaining after 3 min” value on FLAG-MOR [6] is on record as 0.23±0.01.
